Measured values published in patent USRE43038E1, “Compound having antitumor activity and process for producing the same” (Riken, priority 2002, dated 2011).
Values after ≈ are worked out from the molar mass of the structure shown.

Test system: SH-SY5Y cells of human neuroblastoma
Assay: MTT growth inhibition of SH-SY5Y human neuroblastoma cells
Type: cell-based
Settings: DMEM with 5% fetal bovine serum, 48 hours culture at 37° C., absorbance at 570 nm, read-out: 50% growth-inhibiting concentration
Method: SH-SY5Y cells of human neuroblastoma were cultured in DMEM medium (Dulbecco's modified Eagle medium) (containing 5% fetal bovine serum). Compound 1 of the present invention in a series of dilutions was added thereto and cultured at 37° C. under a 5% carbon dioxide atmosphere for 48 hours, followed by adding a MTT (3-(4,5-dimethyl-thiazol-2-yl)-2,5-diphenyl tetrazoliumbromide) reagent and further culturing for 2 to 4 hours. Absorbance at 570 nm was then measured to calculate the survival ratio.

CC=C(/C=C(C)/C=C/CC/C=C(\C)C(=O)C12OC1C(C)(O)NC2=O)C(=O)OC(C)(C)C (stereo not shown) [Compound 1, (3E,5E,9E)-tert-butyl-2-ethylidene-11-(4-hydroxy-4-methyl-2-oxo-6-oxa-3-aza-bicyclo[3.1.0]hex-1-yl)-4,10-dimethyl-11-oxounde ca-3,5,9-trienoate]
IC50: 0.4 µg/mL (≈ 0.927 µM)
